Assays:
DEGS1 = target: T1, DEGS1 (Homo sapiens, UniProt O15121); experiment: Lipid mass spectrometry (LC/MS) of sphingolipids, DEGS1 activity; format: cell-based
T1 construct: endogenous in cells; host or cells: lineage-depleted human cord blood (lin- CB) cells
T1 sequence (O15121 1-323): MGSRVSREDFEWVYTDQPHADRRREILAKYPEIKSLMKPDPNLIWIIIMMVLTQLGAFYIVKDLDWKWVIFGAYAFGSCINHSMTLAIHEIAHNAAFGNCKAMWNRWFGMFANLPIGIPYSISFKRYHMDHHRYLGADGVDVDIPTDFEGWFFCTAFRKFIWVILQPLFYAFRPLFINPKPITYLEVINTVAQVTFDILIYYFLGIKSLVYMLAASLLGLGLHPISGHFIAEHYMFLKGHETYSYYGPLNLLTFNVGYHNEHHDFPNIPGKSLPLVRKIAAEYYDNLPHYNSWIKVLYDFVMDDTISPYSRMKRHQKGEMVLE

sorted HSC, MPP or GMP = experiment: Colony forming assay (CFC) in methylcellulose; format: cell-based, human
Procedure: (A) Dose response of varying [4HPR] in CB at day 3 post-treatment showing 2 uM 4HPR gives the relative half maximal number of viable cells compared to control. All experiments following are at this 4HPR concentration unless otherwise indicated. […] (C) LC/MS was used to profile the ceramide (Cer), dihydroceramide (dhCer), sphingosine (sph), dihydrosphingosine (dhSph), S1P and dihydro-S1P (dhS1P) levels in lin− CB cells cultured for 8 days with control or 4HPR (n=2). […] (D) HSC, MPP, or GMP were sorted into methylcellulose for CFC assays in the presence of control or 4HPR and colonies were blindly scored following 10-11 days for (D) colonies/100 cells and ((E) colony distribution are shown (n=7). (F) Flow cytometry for erythroid (GlyA+) and monocytic (CD14+) markers in live cells from pooled CFC colonies were scored (n=6). (F) Relative number of colonies from CFC assays comparing the effect of 4HPR or ATRA (n=3) on sorted HSC, MPP or GMP. […]
(A) Representative flow cytometry analysis of the primitive hierarchy within the CD34+ fraction of day 8 cultured lin− CB cells after the indicated treatments for CD90 and CD45RA, n=4. B) The distribution of cultured CD34+CD90+CD45RA− (cHSC), CD34+CD90−CD45RA− (cMPP), and […] for the indicated conditions at day 8 of ex vivo culture following CD34 enrichment. Statistical significance assayed through unpaired t-test relative to vehicle control (Ctrl). The relative number of colonies resulting from (C) HSC or (D) MPP grown in methylcellulose CFC assays in the presence of vehicle control (−) or the indicated combination of 2 uM 4HPR, or 35 nM UM171 or 0.5 uM SR1 at 10 days. Statistical significance is calculated via unpaired t-test relative to ctrl (black) or to the presence of absence of 4HPR treatment for UM171 or SR1.
However, the functional consequence of 4HPR treatment on human cord blood primitive cells is unknown. A dose titration of 4HPR was performed on lineage-depleted CB (lin-CB) cells and 2 uM was calculated to give half maximal cell viability at 3 days post-treatment compared to vehicle control (ctrl), a concentration reported in cell lines to antagonize DEGS1 enzymatic function, and used for all subsequent experiments unless otherwise indicated (FIG. 1A). […] Next, we utilized the colony forming assay (CFC) for in vitro progenitor function to determine if 4HPR treatment alters functional output from isolated populations of CB HSPC. […] This is unsurprising as retinoic acid signaling is a potent differentiation signal in hematopoietic cells. Thus, 4HPR inhibition of sphingolipid homeostasis selectively enhances cloning efficiency in human HSC.
Given the CD34 compartment where functional HSC should reside following ex vivo expansion is critical to blood production, we asked if there were immunophenotypic alterations following 4HPR treatment. StemRegenin-1 (SR1) or UM171 are two molecules whose action on CB has been reported to expand CD34+ cells dramatically and lead to increase reconstitution in xenotransplantation (Fares, et al Science, 2014: Boitano, Science, 2010). We sought to ask if limiting CD34+ expansion with 4HPR treatment is synergistic with these known agonists of CB ex vivo expansion. Lin− CB were cultured with these 3 small molecules alone or in combination for 8 days and the CD34 compartment was isolated and analyzed by flow cytometry further with CD90 and CD45RA to look at immunophenotypic cultured HSC (cHSC), MPP (cMPP) and committed progenitors (cProg). These populations were sorted from lin-CB at […] following expansion and transplanted into NSG mice for 16 weeks to ascertain that cProg cells are committed progenitors, while cHSC and cMPP retain multipotency following culture (FIG. 8A, B). […]

[1] = lin-CB cells cultured 8 days, 2 uM 4HPR

CC1=C(/C=C/C(C)=C/C=C/C(C)=C/C(=O)Nc2ccc(O)cc2)C(C)(C)CCC1 [4HPR, N-(4hydroxyphenyl)retinamide]
dhCer and dhSph levels (DEGS1; 8 day culture, alone or in combination with UM171 and SR1): increases dhCer and dhSph
levels of the signaling lipid S1P (DEGS1; [1]): not altered
total ceramide compared to control (DEGS1; [1]): decrease total ceramide
total dihydroceramide compared to control (DEGS1; [1]): increase total dihydroceramide
relative cloning efficiency from HSC (sorted HSC, MPP or GMP; 2 uM 4HPR in combination with either UM171 or SR1, to levels similar to 4HPR alone): increased relative cloning efficiency from HSC
colony distribution (colony type) (sorted HSC, MPP or GMP; HSC and MPP samples, 2 uM 4HPR): more likely to be granulocyte-macrophage (GM) colonies
increase of colony output over control treatment (sorted HSC, MPP or GMP; HSC, 2 uM 4HPR, colonies scored after 10-11 days): 50%
increase of colony output over control treatment (sorted HSC, MPP or GMP; MPP or GMP, 2 uM 4HPR): but not MPP or GMP
myeloid (CD14) and erythroid (GlyA) output of cells from CFC assays (sorted HSC, MPP or GMP; flow cytometry of pooled CFC colonies, 2 uM 4HPR): enhances myeloid output at the expense of erythroid differentiation
